Columns and labels:
[1] = Metabolic stability in liver microsome; assay type: in vitro ADME; conditions: 0.5 mg/mL CD1 mouse liver microsome, 0.5 μM test compound, NADPH and UDPGA, 37° C.
Procedure: 0.5 mg/mL CD1 mouse liver microsome solution, 0.5 μM test compound, 1.0 mM reduced nicotinamide adenine dinucleotide phosphate (NADPH), and 1.0 mM uridine diphosphate-A-glucuronic acid (UDPGA) were added to the incubation plate and mixed, and the plate was incubated at 37° C. for 0, 30, 60, 120 min separately. The positive control group was set as 0.5 μM CYP3A4 probe substrate-testosterone and 0.5 μM UGT probe substrate-7-hydroxycoumarin incubated with microsomes for 0 and 120 min in the presence of NADPH and UDPGA; the negative control group (NC) was set as the test substance incubated with microsomes for 0 and 120 min without any coenzyme. After the reaction was terminated by adding pre-cooled methanol at each termination time, the reaction mixture was centrifuged at 4000 rpm for 10 min, the supernatant was taken and the remaining amount of the parent drug in the sample was measured by LC-MS/MS, the results of which are shown in Table 4.

MDCKII-MDR1 cells = assay: MDCKII-MDR1 cell permeability assay; assay type: in vitro ADME; conditions: 1 μM test compound, 2 h
Procedure: 50 μL of MDCKII-MDR1 cell suspension with a density of 1.56×10^6 cells/mL was seeded into a Transwell well of a 96-well plate, and the plate was cultured in a cell incubator at 37° C. in 5% CO2. […] The medium in Transwell was discarded, and HBSS equilibration solution was added and incubated at 37° C. for 30 min. Subsequently, an apical to basolateral drug transport rate assay was performed by adding 1 μM test compound solution to the Transwell AB side and a blank equilibration solution to the BL side. When the basolateral to apical drug transport rate assay was performed, the operation steps were reversed. Subsequently, the cells were placed in an incubator for 2 h. After the incubation, samples were taken from the basolateral and apical respectively, and after centrifugation, the supernatant was subjected to LC-MS/MS analysis, and the apparent permeability coefficient (Papp) was calculated, the results of which are shown in Table 5.

PARP7 = PARP7 (Homo sapiens (Human), UniProt Q7Z3E1); assay: Enzymatic biochemical assay of PARP (chemiluminescence detection kit), PARP7; conditions: read-out: Inhibitory activity against PAPR7 (IC50)
Sequence of PARP7 (Q7Z3E1 whole entry): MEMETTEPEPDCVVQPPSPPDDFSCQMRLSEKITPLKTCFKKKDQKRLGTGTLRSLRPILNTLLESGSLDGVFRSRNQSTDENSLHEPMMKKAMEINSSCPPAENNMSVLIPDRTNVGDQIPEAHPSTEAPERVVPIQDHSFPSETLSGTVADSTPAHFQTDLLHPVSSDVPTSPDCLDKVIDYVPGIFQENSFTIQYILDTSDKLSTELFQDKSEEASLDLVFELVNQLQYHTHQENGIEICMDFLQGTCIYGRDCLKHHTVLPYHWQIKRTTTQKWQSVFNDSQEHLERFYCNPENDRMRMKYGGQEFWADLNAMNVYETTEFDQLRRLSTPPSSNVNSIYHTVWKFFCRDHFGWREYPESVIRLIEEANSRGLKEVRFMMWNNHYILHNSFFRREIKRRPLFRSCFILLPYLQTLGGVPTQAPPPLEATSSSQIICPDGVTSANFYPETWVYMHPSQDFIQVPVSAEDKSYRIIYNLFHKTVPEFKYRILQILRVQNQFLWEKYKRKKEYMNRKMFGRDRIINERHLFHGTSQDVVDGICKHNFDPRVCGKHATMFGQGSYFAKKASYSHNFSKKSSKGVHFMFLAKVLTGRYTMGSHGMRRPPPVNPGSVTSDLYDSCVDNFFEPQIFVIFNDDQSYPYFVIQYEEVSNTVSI
Procedure: (§1) This assay adopted PARP1, TNKS1, TNKS2, PARP7 and PARP14 chemiluminescence detection kits (BPS, Cat No. 80551/80552/80573/80578/79729/80568) for enzymatic biochemical assay of PARP. The specific scheme was as follows: the 1× histone mixture was added to a 96-well plate at 50 μL per well, and the plate was incubated overnight at 4° C. The next day, after the plate was washed with PBST, 200 μL of blocking buffer per well was added, and the plate was incubated for 90 min. After the plate was washed with PBST again, 5 μL of inhibitor, 20 μL of 1×PARP buffer and 25 μL of […] were added to each well, and the plate was incubated at room temperature for 30 min. After the plate was washed with PBST, 100 μL of Elisa ECL substrate A and B mixture was added to each well, chemiluminescence value was immediately read using a plate reader, and IC50 values were calculated.

PARP1 = PARP1 (Homo sapiens (Human), UniProt P09874); assay: Enzymatic biochemical assay of PARP (chemiluminescence detection kit), PARP1
Sequence of PARP1 (P09874 whole entry): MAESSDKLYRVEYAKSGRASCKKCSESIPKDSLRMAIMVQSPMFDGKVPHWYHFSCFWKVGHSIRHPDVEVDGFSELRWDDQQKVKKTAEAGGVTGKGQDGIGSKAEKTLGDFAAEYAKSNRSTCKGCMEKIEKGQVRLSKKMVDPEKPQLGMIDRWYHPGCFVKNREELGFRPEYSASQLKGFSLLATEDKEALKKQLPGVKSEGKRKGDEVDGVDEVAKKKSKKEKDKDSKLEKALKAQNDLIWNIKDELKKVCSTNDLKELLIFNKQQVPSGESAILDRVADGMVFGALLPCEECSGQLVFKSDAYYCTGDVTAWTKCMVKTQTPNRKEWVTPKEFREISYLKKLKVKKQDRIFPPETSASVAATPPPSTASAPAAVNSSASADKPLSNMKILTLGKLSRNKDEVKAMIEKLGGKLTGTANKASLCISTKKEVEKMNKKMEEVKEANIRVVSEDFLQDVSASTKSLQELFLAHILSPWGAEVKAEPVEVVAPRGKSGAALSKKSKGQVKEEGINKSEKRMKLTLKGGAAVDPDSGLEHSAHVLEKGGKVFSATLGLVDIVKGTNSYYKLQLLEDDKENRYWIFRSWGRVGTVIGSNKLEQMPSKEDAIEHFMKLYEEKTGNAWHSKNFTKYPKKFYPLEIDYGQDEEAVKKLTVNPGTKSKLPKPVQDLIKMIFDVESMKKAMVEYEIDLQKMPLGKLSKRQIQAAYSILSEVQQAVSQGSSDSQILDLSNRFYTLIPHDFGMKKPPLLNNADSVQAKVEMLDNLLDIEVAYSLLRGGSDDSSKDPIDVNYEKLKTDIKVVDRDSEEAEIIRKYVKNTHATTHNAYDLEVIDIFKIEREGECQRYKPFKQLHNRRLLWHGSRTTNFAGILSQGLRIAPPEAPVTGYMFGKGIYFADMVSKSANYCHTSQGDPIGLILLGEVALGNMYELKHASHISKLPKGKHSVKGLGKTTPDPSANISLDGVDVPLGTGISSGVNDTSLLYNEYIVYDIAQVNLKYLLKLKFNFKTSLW
Procedure: as §1

TNKS1 = TNKS1 (Homo sapiens (Human), UniProt O95271); assay: Enzymatic biochemical assay of PARP (chemiluminescence detection kit), TNKS1
Sequence of TNKS1 (O95271 whole entry): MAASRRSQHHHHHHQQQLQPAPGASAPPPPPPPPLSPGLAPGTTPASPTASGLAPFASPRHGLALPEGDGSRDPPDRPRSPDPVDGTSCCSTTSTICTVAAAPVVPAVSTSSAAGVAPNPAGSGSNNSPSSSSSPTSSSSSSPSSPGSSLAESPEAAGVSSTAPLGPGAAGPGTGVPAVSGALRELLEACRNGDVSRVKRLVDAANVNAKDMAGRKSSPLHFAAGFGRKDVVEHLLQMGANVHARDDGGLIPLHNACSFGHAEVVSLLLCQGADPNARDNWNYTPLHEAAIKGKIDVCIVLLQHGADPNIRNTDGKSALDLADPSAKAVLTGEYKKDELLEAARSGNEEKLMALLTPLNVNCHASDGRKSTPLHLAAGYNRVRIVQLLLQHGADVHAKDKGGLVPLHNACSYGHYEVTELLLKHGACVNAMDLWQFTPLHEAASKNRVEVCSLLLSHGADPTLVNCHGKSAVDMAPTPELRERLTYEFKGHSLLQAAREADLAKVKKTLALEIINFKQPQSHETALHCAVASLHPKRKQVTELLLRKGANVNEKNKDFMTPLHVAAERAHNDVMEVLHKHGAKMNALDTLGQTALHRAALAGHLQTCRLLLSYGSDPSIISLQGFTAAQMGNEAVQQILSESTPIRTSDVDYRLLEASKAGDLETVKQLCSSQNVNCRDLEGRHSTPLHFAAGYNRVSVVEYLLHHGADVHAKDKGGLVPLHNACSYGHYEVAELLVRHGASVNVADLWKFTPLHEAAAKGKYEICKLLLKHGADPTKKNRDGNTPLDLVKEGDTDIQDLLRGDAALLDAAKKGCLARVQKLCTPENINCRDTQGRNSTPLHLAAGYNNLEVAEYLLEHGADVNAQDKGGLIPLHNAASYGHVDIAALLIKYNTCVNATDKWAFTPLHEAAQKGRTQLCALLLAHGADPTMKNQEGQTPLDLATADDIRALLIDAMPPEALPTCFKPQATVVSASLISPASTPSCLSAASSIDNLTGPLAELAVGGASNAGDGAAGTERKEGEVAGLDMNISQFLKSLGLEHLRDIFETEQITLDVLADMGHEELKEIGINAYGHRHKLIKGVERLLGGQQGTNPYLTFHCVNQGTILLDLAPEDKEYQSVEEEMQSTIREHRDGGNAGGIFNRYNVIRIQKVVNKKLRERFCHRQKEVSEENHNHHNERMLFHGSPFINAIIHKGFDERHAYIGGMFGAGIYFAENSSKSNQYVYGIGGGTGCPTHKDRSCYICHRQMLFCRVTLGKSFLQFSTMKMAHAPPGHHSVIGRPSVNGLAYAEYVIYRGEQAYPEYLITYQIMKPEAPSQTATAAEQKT
Procedure: as §1

TNKS2 = TNKS2 (Homo sapiens (Human), UniProt Q9H2K2); assay: Enzymatic biochemical assay of PARP (chemiluminescence detection kit), TNKS2
Sequence of TNKS2 (Q9H2K2 whole entry): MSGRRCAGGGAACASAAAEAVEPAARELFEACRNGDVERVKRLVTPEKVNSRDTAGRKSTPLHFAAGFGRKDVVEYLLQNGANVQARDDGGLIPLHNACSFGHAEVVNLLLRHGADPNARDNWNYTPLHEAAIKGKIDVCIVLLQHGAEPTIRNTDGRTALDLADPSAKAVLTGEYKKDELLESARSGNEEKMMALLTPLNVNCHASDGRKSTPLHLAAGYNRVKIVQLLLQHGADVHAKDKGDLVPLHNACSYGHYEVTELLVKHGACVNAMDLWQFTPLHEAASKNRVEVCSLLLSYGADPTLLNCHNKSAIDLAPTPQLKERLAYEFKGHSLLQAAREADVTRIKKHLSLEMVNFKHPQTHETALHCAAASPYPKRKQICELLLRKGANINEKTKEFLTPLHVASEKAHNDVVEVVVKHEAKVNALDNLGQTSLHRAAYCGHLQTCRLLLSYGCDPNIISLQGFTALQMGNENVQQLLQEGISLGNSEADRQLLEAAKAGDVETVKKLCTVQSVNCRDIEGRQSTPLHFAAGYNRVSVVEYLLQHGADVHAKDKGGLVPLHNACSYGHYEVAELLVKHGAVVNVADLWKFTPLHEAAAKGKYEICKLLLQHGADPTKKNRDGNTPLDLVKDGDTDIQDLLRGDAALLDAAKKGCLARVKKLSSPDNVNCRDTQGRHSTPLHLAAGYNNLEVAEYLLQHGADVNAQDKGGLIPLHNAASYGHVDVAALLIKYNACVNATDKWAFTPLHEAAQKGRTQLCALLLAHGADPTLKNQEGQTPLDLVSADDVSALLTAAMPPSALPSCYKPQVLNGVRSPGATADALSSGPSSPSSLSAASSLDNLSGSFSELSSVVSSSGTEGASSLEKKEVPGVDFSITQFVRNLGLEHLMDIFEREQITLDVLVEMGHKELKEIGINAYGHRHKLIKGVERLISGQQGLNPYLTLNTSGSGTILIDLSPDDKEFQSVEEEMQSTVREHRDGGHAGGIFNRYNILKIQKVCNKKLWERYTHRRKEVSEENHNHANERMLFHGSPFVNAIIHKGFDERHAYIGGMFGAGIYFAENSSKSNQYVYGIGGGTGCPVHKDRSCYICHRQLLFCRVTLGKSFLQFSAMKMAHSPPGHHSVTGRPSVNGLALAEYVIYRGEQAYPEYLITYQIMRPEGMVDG
Procedure: as §1

PARP14 = PARP14 (Homo sapiens (Human), UniProt Q460N5); assay: Enzymatic biochemical assay of PARP (chemiluminescence detection kit), PARP14
Procedure: as §1

NCI-H1373 cells = assay: NCI-H1373 cell proliferation inhibition assay; assay type: cell-based; conditions: Homo sapiens, NCI-H1373, 144 h; 6 days of incubation, Cell Titer Blue
Procedure: Human lung adenocarcinoma cells NC-H1373 (ATCC, CRL-5866M) were cultured in a cell incubator at 37° C. and 5% CO2 using RPMI-1640 medium containing 10% FBS and 1% […]. The cells in the logarithmic growth phase were counted by digestion and inoculated in a 96-well plate at 1500 NCI-H1373 per well, and the plate was placed in an incubator overnight. The next day, test compounds were formulated in 10 mM stock solution by using DMSO and 3-fold diluted in gradient from a maximum concentration of 10 μM by using RPMI-1640 medium, and 10 gradient concentrations were set with 2 parallel wells per concentration gradient. After 6 days of incubation, 100 μL of Cell Titer Blue working solution was added to each well and the chemiluminescence value was read in a microplate reader. IC50 was calculated using GraphPad Prism7.0 software.

SMILES | T1/2 [1] | Papp (A-B) (MDCKII-MDR1 cells; apical to basolateral) | Papp (B-A) (MDCKII-MDR1 cells; basolateral to apical) | IC50 (PARP7) | IC50 (PARP1) | IC50 (TNKS1) | IC50 (TNKS2) | IC50 (PARP14) | IC50 (NCI-H1373 cells) | half-life at 0.5 μM ([1]; liver microsomes)
C[C@@H](COCCC(=O)N1CCN(c2ncc(C(F)(F)F)cn2)CC1)Nc1cn[nH]c(=O)c1C(F)(F)F [Comparative example, reference compound] | <30 min | 5.16 10-6, cm/s | 49.43 10-6, cm/s | – | – | – | – | – | – | –
C[C@@H](COCc1cc2n(n1)CCN(c1ncc(C(F)(F)F)cn1)C2)Nc1cn[nH]c(=O)c1C(F)(F)F [Compound 1] | – | – | – | 10 to 50 nM | > 1000 nM | > 10000 nM | > 10000 nM | > 10000 nM | < 50 nM | > 30 min
